Test results published in US5408036A, “Isolated metallopolypeptide: compositions and synthetic methods” (The Scripps Research Institute, priority 1993, dated 1995).
Residues, ends and D or L forms follow the SMILES beside them.

How the values were obtained:
[1] = CD titration: dependence of [θ]222 on free metal ion concentration, ZnCl2; assay type: binding
Description: (§1) FIG. 4 illustrates the dependence of mean residue molar ellipticity at 222 nm ([.THETA.]222 ×10^-3) of peptides SEQ ID NO's:2 AND 3 on the concentration of free metal ions when measured as described in Example 3A(2).
(§2) The peptide metal salt solution admixtures prepared as in Example 2A were subjected to CD analyses according to published procedures to measure the degree of stability induced by metal ion complexation with peptides. Greenfield et al., Biochem, 8:4108 (1969) and Johnson, Ann. Rev. Biophvs. Chem., 17:145 (1988). All CD data reported herein have an uncertainty of ±2 to 5% for a 100% helix, [θ]222 =-35,000, and are based on several CD measurements of both peptides SEQ ID NO's:2 and 3 in the presence and absence of metal ions in various TFE/H20 mixtures at -10° to 20° C.
(§3) Both Cu(II) and Zn(II) bound peptide SEQ ID NO:3 with similar affinities and increased the helical content to the same extent.

[2] = CD titration: dependence of [θ]222 on free metal ion concentration, CdCl2; assay type: binding; conditions: CdCl2, pH 7.5; peptide 6.1×10^-5 M in 5 mM sodium borate, 21° C.
Description: as §1, §2, §3

[3] = Circular dichroism (CD) to measure degree of secondary structure (alpha-helicity); assay type: physicochemical
Procedure: ID No's. 3 and 4. The analysis was performed as described above.
Proton nuclear magnetic resonance spectra were recorded at 300MHz on Bruker AM300 spectrometer and are reported in parts per million (ppm) downfield from Me4 Si. Ultraviolet-visible spectra were recorded on Aviv Associates 14DS and Milton Roy Spectronic 3000 Array spectrometers. Circular dichroism measurements were made on Aviv Associates 62DS spectrometer equipped with a thermostable cell holder using 10, 1, and 0.1 mm Hellma quartz cells. All reported CD data have an uncertainty of ±2-5%. All ellipticity measurements are expressed as mean residue ellipticity, [θ], having the units deg·cm^2 ·dmol-^1.

[4] = CD titration: dependence of [θ]222 on free metal ion concentration, NiCl2; assay type: binding; conditions: NiCl2, pH 6.3; peptide 6.1×10^-5 M in 5 mM sodium borate, 21° C.
Description: as §1, §2, §3

[5] = Heat denaturation assay to measure melting temperatures; assay type: physicochemical
Procedure: In order to assess differences in helix stability between the metal ion complexed and uncomplexed forms of peptides Seq. ID No's. 3 and 4, the conformational stability of each peptide in the presence and absence of transition metal ions was determined from heat denaturation studies according to published procedures. Pace et al., In Protein structure, p. 311., IRL Press, (1989). The analysis of the thermal denaturation curves afforded linear ΔG vs. T and van't Hoff plots. […] Complexed peptides Seq. ID No's.
Because tris-bipyridyl-metal ion coordination complexes are chiral and can form either a left-handed or a right-handed helix, two diastereomeric tri-helical structures can possibly be formed. The stereogenic environment of the ensuing parallel tri-helical topology as well as the geometrical constraints imposed by the overall C3 symmetry of the coordination complex was expected, however, to enforce a high degree of diastereoselectivity in the assembly process. The CD spectrum (in the region of 280 and 330 nm) of the peptide in the presence of Ni(II) indicated the formation of one diastereomer having a left-handed helical configuration. Such a behavior is also consistent with the expected left handed supercoil of the tri-helical metallopolypeptide. The analysis of the thermal denaturation curves for the metallopolypeptide in the presence of Ni(II) yielded linear ΔG vs T and van't Hoff plots.

[6] = CD titration: dependence of [θ]222 on free metal ion concentration, CuCl2; assay type: binding; conditions: CuCl2, pH 5.3; peptide 6.1×10^-5 M in 5 mM sodium borate, 21° C.
Description: as §1, §2, §3

[7] = Metal ion selectivity and relative affinities by CD analysis; assay type: binding; conditions: CD analysis; peptide SEQ ID NO:11 at pH 6.0
Description: Metal ion selectivity is an expected consequence of site specific metal-ligand interaction. The extent of helical induction, to a first approximation, depends on the affinity of metal ion toward the ligands employed, and on the compatibility of metal ion geometry and coordination sphere with the alpha-helical conformation. Thus, although numerous metal ions can induce and stabilize alpha-helix formation, the metal ion having the greatest relative affinity for the ligands employed is preferred and can readily be determined. […]
Peptides, prepared as in Example 1, and admixed with various metal salt solutions as described in Example 2B, were subjected to CD analysis to characterize metal ion selectivity with respect to the position of the metal binding site in the alpha-helical sequence.

[8] = Absorption spectroscopy pH profile of Ru(III)-peptide complexes; assay type: physicochemical; conditions: from absorption data vs pH
Description: The Ru(III)-peptide SEQ ID NO:3 complex prepared as in Example 2B was subjected to absorption spectroscopy to further confirm the formation of a metallopeptide complex.
The pronounced shift in absorption maxima with increasing pH value is consistent with the behavior of the Ru(III) ions containing coordinated imidazoles and is attributed to N-H deprotonation at the "pyrrole nitrogen", Sunberg et al., J. Am. Chem. Soc., 96:381 (1974). […] The spectral similarity with the simple ruthenium(III)imidazole complexes and the characteristically facile metal-ion promoted imidazole NH ionization provide further support for the formation of the metallopeptide complex.

[9] = in the presence of Cu(II) ions (CuSO4, solution 13) at 0° C.

Kd ([1]; ZnCl2, pH 7.5, peptide 6.1×10^-5 M in 5 mM sodium borate, 21° C.) [µM] | Kd [2] [µM] | alpha-helicity [3, 9] | θ222 [3, 9] | dependence of CD spectra on peptide concentration ([3]; presence and absence of metal ions, 0.5-70 μM) | Kd [4] [µM] | Kd [6] [µM] | Compound | effect of Zn(II) on helical content ([1]; CD analysis, ZnCl2) | dependence of helicity on added NaF ([3]; NaF up to 250 mM, 5 mM sodium borate) | alpha-helicity ([3]; room temperature in water) [%] | θ222 ([3]; room temperature in water) | melting temperature (Tm) [5] [°C] | metal ions bound, order of affinity [7] | pKa of the imidazole NH of the coordinated histidine [8]
75 | 220 | about 90% | -31,100 | independent of the peptide concentration | 210 | 66 | CC(=O)N[C@@H](C)C(=O)N[C@@H](CCC(=O)O)C(=O)N[C@@H](C)C(=O)N[C@@H](C)C(=O)N[C@@H](C)C(=O)N[C@@H](CCCCN)C(=O)N[C@@H](CCC(=O)O)C(=O)N[C@@H](C)C(=O)N[C@@H](C)C(=O)N[C@@H](C)C(=O)N[C@@H](CCCCN)C(=O)N[C@@H](Cc1c[nH]cn1)C(=O)N[C@@H](C)C(=O)N[C@@H](C)C(=O)N[C@@H](C)C(=O)N[C@@H](Cc1c[nH]cn1)C(=O)N[C@@H](C)C(N)=O [peptide SEQ ID NO:3, Ac--Ala--Glu--Ala--Ala--Ala--Lys--Glu--Ala--Ala--Ala--Lys--His--Ala--Ala--Ala--His--Ala--CONH2] (Ac-AEAAAKEAAAKHAAAHA-NH2) | considerable helical induction | independent of concentration of added NaF up to 250 mM | 45 | -16,600 | 11 | Ni(II), Cd(II), Cu(II) and Zn(II) in descending order of affinity | –
– | – | – | – | – | – | – | Ru(III)-peptide SEQ ID NO:4 complex: exchange-inert macrocyclic cis-[Ru(NH3)4 (L)2 ]^3+ complex of peptide SEQ ID NO:4 through two His residues at i and i+4 (AEAAAKHAAAHEAAAKA; Ru(III) tetraammine macrocyclic complex via two His) | – | – | 50 | -17,300 | 9.5 | – | 7.5
